# Measurements taken from US20250282785A1, “PYRROLIDINONE DERIVATIVES AS INHIBITORS OF NF KAPPA B INDUCING KINASE” (priority 2022, published 2025).
# Columns and labels:
# [1] = biological target: Recombinant Human NF-Kappab-Inducing Kinase (NIK/MAP3K14) (Homo sapiens, UniProt Q99558); experiment: Inhibition of auto-phosphorylation of recombinant human NIK/MAP3K14 (AlphaScreen); format: biochemical; details: NIK/MAP3K14 auto-phosphorylation, 5 microM ATP, 1 nM enzyme, 2 h at 25° C.; average of values; read-out: Assay 1 IC50
# Recombinant Human NF-Kappab-Inducing Kinase (NIK/MAP3K14), sequence (Q99558 whole entry): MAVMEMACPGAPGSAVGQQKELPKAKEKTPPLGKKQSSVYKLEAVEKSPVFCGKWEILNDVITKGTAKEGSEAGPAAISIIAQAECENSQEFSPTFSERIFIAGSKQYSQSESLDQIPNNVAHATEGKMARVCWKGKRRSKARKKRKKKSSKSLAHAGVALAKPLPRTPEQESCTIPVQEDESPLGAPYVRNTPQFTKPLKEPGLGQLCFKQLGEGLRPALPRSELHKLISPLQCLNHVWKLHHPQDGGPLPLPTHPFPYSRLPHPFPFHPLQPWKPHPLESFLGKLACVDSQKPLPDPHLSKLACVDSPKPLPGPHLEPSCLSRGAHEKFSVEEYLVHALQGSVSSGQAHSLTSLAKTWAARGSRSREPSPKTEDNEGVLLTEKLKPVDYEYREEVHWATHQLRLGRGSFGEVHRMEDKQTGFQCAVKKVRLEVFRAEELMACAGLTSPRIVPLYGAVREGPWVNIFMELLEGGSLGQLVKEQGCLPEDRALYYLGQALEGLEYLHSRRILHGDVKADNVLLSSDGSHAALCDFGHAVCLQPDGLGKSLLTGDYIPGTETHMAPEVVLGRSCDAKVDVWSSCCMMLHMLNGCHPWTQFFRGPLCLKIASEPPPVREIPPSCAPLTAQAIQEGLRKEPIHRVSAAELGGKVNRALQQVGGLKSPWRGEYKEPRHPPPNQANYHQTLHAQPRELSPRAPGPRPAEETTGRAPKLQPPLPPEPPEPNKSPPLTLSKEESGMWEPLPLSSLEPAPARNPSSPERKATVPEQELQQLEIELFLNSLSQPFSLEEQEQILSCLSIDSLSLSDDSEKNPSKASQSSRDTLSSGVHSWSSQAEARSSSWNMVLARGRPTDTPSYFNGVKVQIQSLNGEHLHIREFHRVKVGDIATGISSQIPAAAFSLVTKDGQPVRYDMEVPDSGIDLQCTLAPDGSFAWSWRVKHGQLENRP
# In short: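 GST-tagged NIK (1 nM) auto-phosphorylation with 5 µM ATP in Tris pH 7.5/MgCl2 buffer, 0.7% DMSO, 2 h at 25 °C. Phospho-IKK Ser176/180 antibody detected by AlphaScreen beads. Signal normalized to full-enzyme and no-ATP controls; IC50 from sigmoidal fit of % inhibition vs log concentration.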
# [2] = test system: p-IKKα levels in L363 (NIK translocated multiple myeloma) cells; experiment: Effect of compounds on p-IKKα levels in L363 cells (AlphaLISA SureFire Ultra); format: cell-based; details: Homo sapiens, L-363; L363 cells, BAFF stimulated, MG132, 6 h; average of values; read-out: Assay 2 IC50
# In short: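 L363 myeloma cells were BAFF-stimulated (250 ng/ml) overnight in DMEM/0.5% BSA, then exposed 6 h at 37° C to compound (11-point 1:3 series, 0.3% DMSO) with BAFF plus 10 uM MG132. p-IKKα (Ser 176/180) was read by AlphaLISA SureFire Ultra in lysates. IC50 came from sigmoidal fits normalized to stimulated and unstimulated controls.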
Structure (SMILES),IC50 [1],IC50 [2]
"COc1cc(-c2cc(-c3cc([C@]4(O)C[C@@H](C(F)(F)F)N(C)C4=O)on3)ccc2F)nc2c(N)ncnc12 [Example 116, (3R,5S)-3-(3-(3-(4-amino-8-methoxypyrido[3,2-d]pyrimidin-6-yl)-4-fluorophenyl)isoxazol-5-yl)-3-hydroxy-1-methyl-5-(trifluoromethyl)pyrrolidin-2-one]",< 100 nM,> 501 nM
"CN1CC[C@@](O)(c2cc(-c3ccc(F)c(-c4cc(C5CC5)c(N)c(C(N)=O)n4)c3)no2)C1=O [Example 245, (R)-3-Amino-4-cyclopropyl-6-(2-fluoro-5-(5-(3-hydroxy-1-methyl-2-oxopyrrolidin-3-yl)isoxazol-3-yl)phenyl)picolinamide]",< 100 nM,< 100 nM
"CN1CC[C@@](O)(c2cc(-c3cccc(-c4cn(C)c(C(N)=O)n4)c3)no2)C1=O [Example 114, (R)-4-(3-(5-(3-Hydroxy-1-methyl-2-oxopyrrolidin-3-yl)isoxazol-3-yl)phenyl)-1-methyl-1H-imidazole-2-carboxamide]",< 100 nM,> 501 nM
"CN1CC[C@@](O)(c2cc(-c3cccc(-c4nc5c(c(C(N)=O)n4)[C@H]4CC[C@@H](C5)O4)c3)[nH]n2)C1=O [Example 173, (5R,8S)-2-(3-(5-((R)-3-Hydroxy-1-methyl-2-oxopyrrolidin-3-yl)-1H-pyrazol-3-yl)phenyl)-6,7,8,9-tetrahydro-5H-5,8-epoxycyclohepta[d]pyrimidine-4-carboxamide]",< 100 nM,> 501 nM
"CN1CC[C@@](O)(c2cc(-c3cccc(-c4nc(C(N)=O)c(C(F)F)s4)c3)no2)C1=O [Example 222, (R)-5-(Difluoromethyl)-2-(3-(5-(3-hydroxy-1-methyl-2-oxopyrrolidin-3-yl)isoxazol-3-yl)phenyl)thiazole-4-carboxamide]",< 100 nM,100 to 500 nM
"CN1CC[C@@](O)(c2cc(-c3cccc(-c4ccc(NCC5COC5)c(C(N)=O)n4)c3)no2)C1=O [Example 106, (R)-6-(3-(5-(3-Hydroxy-1-methyl-2-oxopyrrolidin-3-yl)isoxazol-3-yl)phenyl)-3-((oxetan-3-ylmethyl)amino)picolinamide]",< 100 nM,100 to 500 nM
"COc1cc(-c2cccc(-c3cc([C@]4(O)CCN(C)C4=O)on3)c2)nc2c(N)ncnc12 [Example 118, (R)-3-(3-(3-(4-Amino-8-methoxypyrido[3,2-d]pyrimidin-6-yl)phenyl)isoxazol-5-yl)-3-hydroxy-1-methylpyrrolidin-2-one]",< 100 nM,100 to 500 nM
"Cc1ncn2cc(-c3cccc(-c4cc([C@]5(O)CCN(C)C5=O)on4)c3)ccc12 [Example 57, (R)-3-Hydroxy-1-methyl-3-(3-(3-(1-methylimidazo[1,5-a]pyridin-6-yl)phenyl)isoxazol-5-yl)pyrrolidin-2-one]",> 501 nM,> 501 nM
"CN1CC[C@@](O)(c2cc(-c3cccc(-c4nc(C(N)=O)c(CNc5ccn(C)n5)s4)c3)no2)C1=O [Example 238, (R)-2-(3-(5-(3-Hydroxy-1-methyl-2-oxopyrrolidin-3-yl)isoxazol-3-yl)phenyl)-5-(((1-methyl-1H-pyrazol-3-yl)amino)methyl)thiazole-4-carboxamide]",< 100 nM,100 to 500 nM
"Cc1cc(N2CCC[C@@H](c3cc([C@]4(O)CCN(C)C4=O)on3)C2)nc2c(N)ncnc12 (single isomer, unassigned) [Example 199]",< 100 nM,> 501 nM
"CN1CC[C@@](O)(c2cc(-c3cccc(-c4cc5[nH]ncc5cn4)c3)no2)C1=O [Example 83, (R)-3-(3-(3-(1H-pyrazolo[4,3-c]pyridin-6-yl)phenyl)isoxazol-5-yl)-3-hydroxy-1-methylpyrrolidin-2-one]",> 501 nM,> 501 nM
"CN1CC[C@@](O)(c2cc(-c3cccc(-c4ncnn5cccc45)c3)no2)C1=O [Example 52, (R)-3-Hydroxy-1-methyl-3-(3-(3-(pyrrolo[2,1-f][1,2,4]triazin-4-yl)phenyl)isoxazol-5-yl)pyrrolidin-2-one]",100 to 500 nM,> 501 nM
"Cc1ncc2cc(-c3cccc(-c4cc([C@]5(O)CCN(C)C5=O)on4)c3)ccn12 [Example 60, (R)-3-hydroxy-1-methyl-3-(3-(3-(3-methylimidazo[1,5-a]pyridin-7-yl)phenyl)isoxazol-5-yl)pyrrolidin-2-one]",> 501 nM,> 501 nM
"CCn1cc(-c2cc(C(N)=O)nc(-c3cccc(-c4cc([C@]5(O)CCN(C)C5=O)on4)c3)c2)c(C)n1 [Example 187, (R)-4-(1-Ethyl-3-methyl-1H-pyrazol-4-yl)-6-(3-(5-(3-hydroxy-1-methyl-2-oxopyrrolidin-3-yl)isoxazol-3-yl)phenyl)picolinamide]",< 100 nM,100 to 500 nM
"[2H]c1nc(N)c2nc(-c3cccc(-c4cc([C@]5(O)CCN(C)C5=O)on4)c3)ccc2n1 [Example 2, (R)-3-(3-(3-(4-Aminopyrido[3,2-d]pyrimidin-6-yl-2-d)phenyl)isoxazol-5-yl)-3-hydroxy-1-methylpyrrolidin-2-one]",< 100 nM,100 to 500 nM
"CN1CC[C@@](O)(c2cc(-c3cccc(-c4nc(C(N)=O)c(Nc5ccn(C)n5)s4)c3)no2)C1=O [Example 236, (R)-2-(3-(5-(3-Hydroxy-1-methyl-2-oxopyrrolidin-3-yl)isoxazol-3-yl)phenyl)-5-((1-methyl-1H-pyrazol-3-yl)amino)thiazole-4-carboxamide]",< 100 nM,< 100 nM
"CN1CC[C@@](O)(c2cc(-c3cccc(-c4cncc(C(N)=O)n4)c3)no2)C1=O [Example 147, (R)-6-(3-(5-(3-Hydroxy-1-methyl-2-oxopyrrolidin-3-yl)isoxazol-3-yl)phenyl)pyrazine-2-carboxamide]",< 100 nM,> 501 nM
"CN1CC[C@](O)(c2cc(-c3cccc(-c4nc5c(c(C(N)=O)n4)[C@H]4CC[C@@H](C5)O4)c3)no2)C1=O [Example 172, (5R,8S)-2-(3-(5-((S)-3-Hydroxy-1-methyl-2-oxopyrrolidin-3-yl)isoxazol-3-yl)phenyl)-6,7,8,9-tetrahydro-5H-5,8-epoxycyclohepta[d]pyrimidine-4-carboxamide]",> 501 nM,> 501 nM
"[2H]C([2H])([2H])N1CC[C@@](O)(c2cc(-c3cccc(-c4cc(C5CC5)c(N)c(C(N)=O)n4)c3)no2)C1=O [Example 179, (R)-3-Amino-4-cyclopropyl-6-(3-(5-(3-hydroxy-1-(methyl-d3)-2-oxopyrrolidin-3-yl)isoxazol-3-yl)phenyl)picolinamide]",< 100 nM,< 100 nM
"CN1CC[C@@](O)(c2cc(-c3ccc(-c4cccc(C(N)=O)n4)o3)no2)C1=O [Example 164, (R)-6-(5-(5-(3-Hydroxy-1-methyl-2-oxopyrrolidin-3-yl)isoxazol-3-yl)furan-2-yl)picolinamide]",< 100 nM,> 501 nM
"CN1CC[C@@](O)(c2cc(-c3cccc(-c4csc(C(N)=O)n4)c3)no2)C1=O [Example 205, (R)-4-(3-(5-(3-Hydroxy-1-methyl-2-oxopyrrolidin-3-yl)isoxazol-3-yl)phenyl)thiazole-2-carboxamide]",< 100 nM,> 501 nM
"COc1cc(-c2cccc(-c3cc([C@]4(O)CCN(C)C4=O)on3)c2)cc(C(N)=O)n1 [Example 47, (R)-4-(3-(5-(3-Hydroxy-1-methyl-2-oxopyrrolidin-3-yl)isoxazol-3-yl)phenyl)-6-methoxypicolinamide]",> 501 nM,> 501 nM
"COc1cc(-c2cc(-c3cc([C@]4(O)C[C@@H](C(F)(F)F)N(C)C4=O)on3)c(F)cc2F)nc2c(N)ncnc12 [Example 115, (3R,5S)-3-(3-(5-(4-Amino-8-methoxypyrido[3,2-d]pyrimidin-6-yl)-2,4-difluorophenyl)isoxazol-5-yl)-3-hydroxy-1-methyl-5-(trifluoromethyl)pyrrolidin-2-one]",> 501 nM,> 501 nM
"COc1cc(-c2cccc(-c3cc([C@]4(O)CCN(C)C4=O)on3)c2)nc2c1cnn2C [Example 48, (R)-3-Hydroxy-3-(3-(3-(4-methoxy-1-methyl-1H-pyrazolo[3,4-b]pyridin-6-yl)phenyl)isoxazol-5-yl)-1-methylpyrrolidin-2-one]",< 100 nM,> 501 nM
"COc1ncc(-c2cccc(-c3cc([C@]4(O)CCN(C)C4=O)on3)c2)c(C(N)=O)n1 [Example 138, (R)-5-(3-(5-(3-Hydroxy-1-methyl-2-oxopyrrolidin-3-yl)isoxazol-3-yl)phenyl)-2-methoxypyrimidine-4-carboxamide]",> 501 nM,> 501 nM
"CCn1cnc2c(C(N)=O)nc(-c3cccc(-c4cc([C@]5(O)CCN(C)C5=O)on4)c3)cc21 [Example 90, (R)-1-Ethyl-6-(3-(5-(3-hydroxy-1-methyl-2-oxopyrrolidin-3-yl)isoxazol-3-yl)phenyl)-1H-imidazo[4,5-c]pyridine-4-carboxamide]",100 to 500 nM,> 501 nM
"CN1CC[C@@](O)(c2cc(-c3cccc(-c4ncc5cnn(C)c5n4)c3)no2)C1=O [Example 227, (R)-3-Hydroxy-1-methyl-3-(3-(3-(1-methyl-1H-pyrazolo[3,4-d]pyrimidin-6-yl)phenyl)isoxazol-5-yl)pyrrolidin-2-one]",100 to 500 nM,> 501 nM
